Reference: paper doi:10.1101/2021.04.08.439011v1 (biorxiv, 2021)

What was measured:
Settings in all cases: 1 µM; binder
EPHA7 = EPHA7 (Homo sapiens, UniProt Q15375)
FLT3 = target: T1, FLT3 (Homo sapiens, UniProt P36888)
T1 sequence (P36888 1-993): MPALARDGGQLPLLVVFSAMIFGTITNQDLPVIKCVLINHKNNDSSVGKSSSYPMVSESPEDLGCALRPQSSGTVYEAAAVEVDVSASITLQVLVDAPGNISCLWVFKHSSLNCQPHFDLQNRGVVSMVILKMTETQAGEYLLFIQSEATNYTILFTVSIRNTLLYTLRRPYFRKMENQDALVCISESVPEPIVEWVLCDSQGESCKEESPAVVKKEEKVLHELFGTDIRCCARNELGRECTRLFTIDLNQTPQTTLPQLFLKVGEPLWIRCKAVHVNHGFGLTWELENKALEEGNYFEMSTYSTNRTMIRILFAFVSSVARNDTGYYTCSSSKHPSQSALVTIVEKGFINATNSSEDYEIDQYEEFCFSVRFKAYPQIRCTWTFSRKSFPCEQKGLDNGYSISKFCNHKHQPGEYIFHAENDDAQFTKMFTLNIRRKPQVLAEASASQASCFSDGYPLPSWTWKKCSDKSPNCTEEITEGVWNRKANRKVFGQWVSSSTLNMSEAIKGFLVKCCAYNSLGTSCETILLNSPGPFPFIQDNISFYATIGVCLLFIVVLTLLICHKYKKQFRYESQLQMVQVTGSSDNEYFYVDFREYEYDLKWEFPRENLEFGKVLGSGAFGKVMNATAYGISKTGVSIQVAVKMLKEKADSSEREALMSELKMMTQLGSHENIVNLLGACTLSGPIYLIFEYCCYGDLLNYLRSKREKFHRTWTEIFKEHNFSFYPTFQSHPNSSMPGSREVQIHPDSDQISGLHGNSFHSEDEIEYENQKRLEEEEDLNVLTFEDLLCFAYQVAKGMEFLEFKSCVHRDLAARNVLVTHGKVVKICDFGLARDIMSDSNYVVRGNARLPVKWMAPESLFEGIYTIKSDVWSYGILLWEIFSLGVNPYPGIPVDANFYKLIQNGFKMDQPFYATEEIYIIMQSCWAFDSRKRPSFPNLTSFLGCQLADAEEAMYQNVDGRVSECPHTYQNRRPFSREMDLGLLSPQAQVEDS

KIT(V559D,T670I) = KIT(V559D,T670I) (Homo sapiens, UniProt P10721, T670I/V559D)
MST1 = MST1 (Homo sapiens, UniProt Q13043)
CAMKK2 = CAMKK2 (Homo sapiens, UniProt Q96RR4)
CAMK2B = CAMK2B (Homo sapiens, UniProt Q13554)
FLT1 = FLT1 (Homo sapiens, UniProt P17948)
FLT3(D835V) = FLT3(D835V) (Homo sapiens, UniProt P36888, D835V)
MET = MET (Homo sapiens, UniProt P08581)
MAP4K2 = MAP4K2 (Homo sapiens, UniProt Q12851)
MAP4K2, sequence (Q12851 whole entry): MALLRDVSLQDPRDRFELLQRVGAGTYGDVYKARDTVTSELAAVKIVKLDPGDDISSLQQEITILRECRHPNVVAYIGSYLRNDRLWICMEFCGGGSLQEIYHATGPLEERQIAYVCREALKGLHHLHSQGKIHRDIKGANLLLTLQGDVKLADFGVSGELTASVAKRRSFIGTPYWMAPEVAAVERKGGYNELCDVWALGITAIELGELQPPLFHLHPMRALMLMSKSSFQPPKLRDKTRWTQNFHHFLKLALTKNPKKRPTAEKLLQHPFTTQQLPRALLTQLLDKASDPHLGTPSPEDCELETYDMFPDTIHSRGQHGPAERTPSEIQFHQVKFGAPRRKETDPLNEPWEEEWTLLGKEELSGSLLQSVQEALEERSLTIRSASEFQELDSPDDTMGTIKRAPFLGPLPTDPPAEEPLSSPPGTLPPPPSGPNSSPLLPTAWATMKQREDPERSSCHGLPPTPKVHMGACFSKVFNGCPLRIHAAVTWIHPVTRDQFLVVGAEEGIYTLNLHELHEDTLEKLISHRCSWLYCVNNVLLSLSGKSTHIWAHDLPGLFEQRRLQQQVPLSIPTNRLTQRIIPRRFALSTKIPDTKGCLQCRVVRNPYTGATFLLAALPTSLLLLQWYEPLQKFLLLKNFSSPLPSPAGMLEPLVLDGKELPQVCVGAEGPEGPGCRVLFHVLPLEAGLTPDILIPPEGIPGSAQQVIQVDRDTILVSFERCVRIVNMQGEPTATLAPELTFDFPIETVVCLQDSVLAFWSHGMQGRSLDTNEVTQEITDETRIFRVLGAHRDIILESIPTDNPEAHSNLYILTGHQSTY

BIKE = BIKE (Homo sapiens, UniProt Q9NSY1)
PYK2 = PYK2 (Homo sapiens, UniProt Q14289)
GRK7 = GRK7 (Homo sapiens, UniProt Q8WTQ7)
CAMK2A = CAMK2A (Homo sapiens, UniProt Q9UQM7)
CAMK2A, sequence (Q9UQM7 whole entry): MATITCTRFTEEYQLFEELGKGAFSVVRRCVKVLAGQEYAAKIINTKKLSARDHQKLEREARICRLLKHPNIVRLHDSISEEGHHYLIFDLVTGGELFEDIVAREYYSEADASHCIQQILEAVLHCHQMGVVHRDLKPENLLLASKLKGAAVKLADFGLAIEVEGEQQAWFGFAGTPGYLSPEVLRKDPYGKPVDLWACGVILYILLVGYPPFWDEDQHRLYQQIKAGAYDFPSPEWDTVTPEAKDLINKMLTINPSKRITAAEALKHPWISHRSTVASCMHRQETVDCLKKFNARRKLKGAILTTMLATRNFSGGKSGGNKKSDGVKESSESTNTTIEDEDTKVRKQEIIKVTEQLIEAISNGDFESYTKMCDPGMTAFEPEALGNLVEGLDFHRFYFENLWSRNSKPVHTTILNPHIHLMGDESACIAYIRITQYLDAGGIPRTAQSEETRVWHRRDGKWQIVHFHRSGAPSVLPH

SLK = SLK (Homo sapiens, UniProt Q9H2G2)
LRRK2(G2019S) = LRRK2(G2019S) (Homo sapiens, UniProt Q5S007, G2019S)
LRRK2(G2019S), sequence (Q5S007 whole entry G2019S): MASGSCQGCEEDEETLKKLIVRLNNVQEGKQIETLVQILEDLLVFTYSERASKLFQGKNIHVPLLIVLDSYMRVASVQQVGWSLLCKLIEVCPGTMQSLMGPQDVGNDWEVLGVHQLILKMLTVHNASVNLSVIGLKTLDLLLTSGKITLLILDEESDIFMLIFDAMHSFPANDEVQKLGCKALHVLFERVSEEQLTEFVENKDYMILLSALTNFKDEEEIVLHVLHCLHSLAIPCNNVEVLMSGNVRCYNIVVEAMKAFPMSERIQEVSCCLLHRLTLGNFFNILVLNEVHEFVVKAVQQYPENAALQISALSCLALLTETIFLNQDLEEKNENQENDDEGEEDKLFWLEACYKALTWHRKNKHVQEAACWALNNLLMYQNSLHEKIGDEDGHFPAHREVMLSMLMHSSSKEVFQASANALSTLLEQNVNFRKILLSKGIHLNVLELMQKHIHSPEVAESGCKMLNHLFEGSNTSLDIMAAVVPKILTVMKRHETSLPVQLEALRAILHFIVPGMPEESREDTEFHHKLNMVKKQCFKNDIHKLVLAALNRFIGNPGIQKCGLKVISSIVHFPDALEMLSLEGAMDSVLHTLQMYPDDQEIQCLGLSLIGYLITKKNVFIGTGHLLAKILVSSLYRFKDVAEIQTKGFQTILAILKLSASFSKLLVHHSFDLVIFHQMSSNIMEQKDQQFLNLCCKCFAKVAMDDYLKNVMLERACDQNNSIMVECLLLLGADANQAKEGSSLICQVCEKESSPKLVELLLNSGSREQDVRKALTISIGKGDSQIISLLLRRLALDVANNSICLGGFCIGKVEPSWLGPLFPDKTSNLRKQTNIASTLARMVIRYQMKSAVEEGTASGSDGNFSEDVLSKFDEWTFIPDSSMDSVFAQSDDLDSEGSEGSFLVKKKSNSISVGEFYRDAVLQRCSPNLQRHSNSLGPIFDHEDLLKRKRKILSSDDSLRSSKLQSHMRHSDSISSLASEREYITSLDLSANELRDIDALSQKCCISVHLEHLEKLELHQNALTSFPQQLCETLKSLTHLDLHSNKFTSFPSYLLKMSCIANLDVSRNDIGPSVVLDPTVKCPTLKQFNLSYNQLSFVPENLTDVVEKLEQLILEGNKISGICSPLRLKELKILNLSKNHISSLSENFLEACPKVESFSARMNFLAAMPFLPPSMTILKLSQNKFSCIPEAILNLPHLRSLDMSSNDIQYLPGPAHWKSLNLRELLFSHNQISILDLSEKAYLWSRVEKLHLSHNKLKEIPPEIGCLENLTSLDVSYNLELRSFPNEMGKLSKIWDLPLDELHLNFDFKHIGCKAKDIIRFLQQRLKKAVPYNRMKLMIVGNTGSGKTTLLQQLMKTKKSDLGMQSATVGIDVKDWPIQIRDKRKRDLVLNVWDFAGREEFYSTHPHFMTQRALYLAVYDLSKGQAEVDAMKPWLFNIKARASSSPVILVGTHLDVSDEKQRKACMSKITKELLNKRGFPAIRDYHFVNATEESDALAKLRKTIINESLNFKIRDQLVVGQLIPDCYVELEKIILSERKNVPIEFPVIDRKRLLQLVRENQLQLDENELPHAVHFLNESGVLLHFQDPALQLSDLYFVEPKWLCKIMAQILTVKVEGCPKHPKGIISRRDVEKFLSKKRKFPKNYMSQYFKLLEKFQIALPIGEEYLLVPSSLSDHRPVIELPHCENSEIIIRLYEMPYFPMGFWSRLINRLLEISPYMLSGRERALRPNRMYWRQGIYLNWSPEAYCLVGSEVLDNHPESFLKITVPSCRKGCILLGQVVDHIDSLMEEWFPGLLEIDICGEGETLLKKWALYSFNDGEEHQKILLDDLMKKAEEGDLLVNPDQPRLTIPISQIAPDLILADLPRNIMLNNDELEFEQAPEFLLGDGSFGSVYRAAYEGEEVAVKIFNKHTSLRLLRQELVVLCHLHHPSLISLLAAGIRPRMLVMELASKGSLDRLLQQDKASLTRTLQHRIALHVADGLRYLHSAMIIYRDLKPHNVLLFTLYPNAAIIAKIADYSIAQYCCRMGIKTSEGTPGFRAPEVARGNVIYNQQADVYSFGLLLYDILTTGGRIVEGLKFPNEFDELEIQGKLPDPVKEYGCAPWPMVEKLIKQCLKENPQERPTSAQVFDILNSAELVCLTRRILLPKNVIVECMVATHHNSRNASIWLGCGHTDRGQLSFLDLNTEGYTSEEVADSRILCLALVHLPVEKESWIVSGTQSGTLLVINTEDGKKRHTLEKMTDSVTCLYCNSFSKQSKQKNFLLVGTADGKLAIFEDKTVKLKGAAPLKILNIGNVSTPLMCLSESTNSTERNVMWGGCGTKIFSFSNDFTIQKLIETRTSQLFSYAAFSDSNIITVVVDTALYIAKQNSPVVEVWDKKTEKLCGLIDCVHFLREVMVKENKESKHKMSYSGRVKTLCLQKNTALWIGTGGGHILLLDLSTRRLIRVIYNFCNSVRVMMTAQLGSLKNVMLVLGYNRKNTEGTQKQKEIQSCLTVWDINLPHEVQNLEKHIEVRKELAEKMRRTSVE

MYLK4 = MYLK4 (Homo sapiens, UniProt Q86YV6)
MYLK4, sequence (Q86YV6 whole entry): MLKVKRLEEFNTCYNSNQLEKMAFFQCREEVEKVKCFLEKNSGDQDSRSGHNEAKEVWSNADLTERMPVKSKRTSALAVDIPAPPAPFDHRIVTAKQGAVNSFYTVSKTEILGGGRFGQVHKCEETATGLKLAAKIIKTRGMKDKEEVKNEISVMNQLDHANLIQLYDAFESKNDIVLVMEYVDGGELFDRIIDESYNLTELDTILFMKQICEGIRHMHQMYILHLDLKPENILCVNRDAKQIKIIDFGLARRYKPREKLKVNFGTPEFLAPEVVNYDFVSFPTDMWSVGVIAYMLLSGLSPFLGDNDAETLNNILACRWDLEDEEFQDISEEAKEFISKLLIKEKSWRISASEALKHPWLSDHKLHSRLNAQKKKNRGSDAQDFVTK

TAOK1 = TAOK1 (Homo sapiens, UniProt Q7L7X3)
ANKK1 = ANKK1 (Homo sapiens, UniProt Q8NFD2)
FLT3(D835Y) = FLT3(D835Y) (Homo sapiens, UniProt P36888, D835Y)
MST4 = MST4 (Homo sapiens, UniProt Q9P289)
MST4, sequence (Q9P289 whole entry): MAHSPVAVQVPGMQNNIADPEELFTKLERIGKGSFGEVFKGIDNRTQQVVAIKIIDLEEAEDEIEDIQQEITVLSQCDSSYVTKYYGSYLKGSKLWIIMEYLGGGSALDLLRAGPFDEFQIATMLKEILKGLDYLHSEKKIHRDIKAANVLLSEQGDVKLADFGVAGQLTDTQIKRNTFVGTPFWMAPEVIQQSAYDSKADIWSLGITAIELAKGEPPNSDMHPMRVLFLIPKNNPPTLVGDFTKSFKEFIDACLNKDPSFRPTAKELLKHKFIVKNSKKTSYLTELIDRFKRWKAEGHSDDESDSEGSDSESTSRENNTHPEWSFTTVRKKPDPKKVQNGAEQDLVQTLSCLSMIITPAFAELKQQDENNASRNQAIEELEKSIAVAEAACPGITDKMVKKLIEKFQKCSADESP

## CNc1ncc2cc(-c3ccc(-c4cccc(C)n4)cc3Cl)c(=O)n(C[C@H]3OC[C@H](N)CO3)c2n1 [compound 6, G-5555]
EPHA7
  Percent Control: 100%
FLT3
  Percent Control: 100%
KIT(V559D,T670I)
  Percent Control: 100%
MST1
  Percent Control: 51%
CAMKK2
  Percent Control: 100%
CAMK2B
  Percent Control: 100%
FLT1
  Percent Control: 100%
FLT3(D835V)
  Percent Control: 67%
MET
  Percent Control: 40%
MAP4K2
  Percent Control: 32%
BIKE
  Percent Control: 100%
PYK2
  Percent Control: 100%
GRK7
  Percent Control: 89%
CAMK2A
  Percent Control: 88%
SLK
  Percent Control: 33%
LRRK2(G2019S)
  Percent Control: 100%
MYLK4
  Percent Control: 100%
TAOK1
  Percent Control: 87%
ANKK1
  Percent Control: 87%
FLT3(D835Y)
  Percent Control: 81%
MST4
  Percent Control: 0%
